Where two headings read alike, the source gives them in different places.
Tests used:
Assay type in all cases: in vivo
[1] = system: Eggs of Tetranychus Cinnabarinus; assay: Activity assay of eggs of Tetranychus cinnabarinus (spray method, ovicidal); conditions: Tetranychus cinnabarinus; for pest or weed control at 2 µg/mL: concentration 2 mg/L
In short: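 Female mites laid eggs on broad bean leaves for 24 h, adults removed, eggs sprayed with compound in DMF (≤10%)/1‰ Tween 80. Held at 26±2° C, 70–80% humidity, 16 h light; unhatched eggs counted dead once blank control hatched. Three replicates.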

[2] = system: adult Tetranychus cinnabarinus; assay: Activity assay of adult Tetranychus cinnabarinus (whole-plant spray on bean seedlings); conditions: 48 h; for pest or weed control at 1.25 µg/mL: concentration 1.25 mg/L
In short: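 Bean seedlings at two-true-leaf stage, infested with adult mites and base count taken, sprayed whole-plant with compound in DMF (≤10%) diluted in 1‰ Tween 80. Three replicates per treatment kept in standard observation room. Surviving mites counted at 48 h to give death rate.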

[3] = system: Tetranychus cinnabarinus Nymphs; assay: Activity assay of Tetranychus cinnabarinus nymphs (spray on broad bean leaves)
In short: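 Compound in DMF (≤10%) diluted in 1‰ Tween 80 water was sprayed onto broad bean leaves carrying nymphs hatched from eggs laid by female adults over 24 h. Kept at 26±2° C., 70%–80% humidity, 16 h light; mortality (no response to touch) assessed after 48 h, three replicates with blank control.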

[4] = spray, read-out: ovicidal activity
[5] = concentration 5 mg/L, spray, non-incubated eggs counted as dead, read-out: ovicidal activity
[6] = eggs, parallel determination, read-out: Death rate (%)
[7] = adult mites, parallel determination, read-out: Death rate (%)
[8] = read-out: adult mite-killing activity
[9] = concentration 2.5 mg/L, read-out: adult mite-killing activity
[10] = 48 h, concentration 2 mg/L, read-out: nymph-killing activity
[11] = 48 h, concentration 2.5 mg/L, read-out: nymph-killing activity
[12] = 48 h, nymphs, concentration 0.5 mg/L, parallel determination, read-out: Death rate (%)
[13] = 48 h, read-out: nymph-killing activity
[14] = concentration 2.5 mg/L, 48 h, read-out: nymph-killing activity

SMILES | pest or weed control at 5 µg/mL [1, 5] | pest or weed control at 2.5 µg/mL [2, 9] | pest or weed control at 2.5 µg/mL [3, 11] | also measured
CCC(=O)OCO/C(=C(/C#N)c1ccc(C(C)(C)C)cc1)c1c(Cl)c(C)nn1CC [Compound 302] | ≥ 90% | ≥ 90% | ≥ 95% | pest or weed control at 2 µg/mL [1, 4]: ≥ 90%; pest or weed control at 2 µg/mL [1, 6]: 97%; pest or weed control at 1.25 µg/mL [2, 7]: 96%; pest or weed control at 1.25 µg/mL [2, 8]: ≥ 90%; pest or weed control at 2 µg/mL [3, 10]: ≥ 90%; pest or weed control at 0.5 µg/mL [3, 12]: 96%
Cc1cc(/C(OC(C)OC(=O)CF)=C(\C#N)c2ccc(C(C)(C)C)cc2)n(C)n1 (stereo not drawn) [Compound 37] | – | – | – | pest or weed control at 5 µg/mL ([1]; read-out: ovicidal activity): ≥ 90%; pest or weed control at 2.5 µg/mL [2, 8]: ≥ 90%; pest or weed control at 2.5 µg/mL [3, 13]: ≥ 95%
C=CCOC(=O)OC(C)O/C(=C(/C#N)c1ccc(C(C)(C)C)cc1)c1cc(C)nn1CC (stereo not drawn) [Compound 602] | ≥ 90% | ≥ 90% | ≥ 95% | pest or weed control at 2 µg/mL [1, 4]: ≥ 90%; pest or weed control at 1.25 µg/mL [2, 8]: ≥ 90%; pest or weed control at 2 µg/mL [3, 10]: ≥ 90%
CCn1nc(C)c(C)c1/C(OCOC(=O)C1CC1)=C(\C#N)c1ccc(C(C)(C)C)cc1 [Compound 384] | ≥ 90% | ≥ 90% | ≥ 95% | –
CCCCC(=O)OC(C)O/C(=C(/C#N)c1ccc(C(C)(C)C)cc1)c1cc(C)nn1CC (stereo not drawn) [Compound 256] | ≥ 90% | ≥ 90% | ≥ 95% | –
CCn1nc(C)cc1/C(OCOC(=O)OCCOC)=C(\C#N)c1ccc(C(C)(C)C)cc1 [Compound 564] | ≥ 90% | ≥ 90% | ≥ 95% | –
CCCC(=O)OC(C)O/C(=C(/C#N)c1ccc(C(C)(C)C)cc1)c1c(C)c(C)nn1CC (stereo not drawn) [Compound 403] | ≥ 90% | ≥ 90% | ≥ 95% | –
Cc1cc(/C(OC(C)OC(=O)OCC(C)C)=C(\C#N)c2ccc(C(C)(C)C)cc2)n(C)n1 (stereo not drawn) [Compound 489] | ≥ 90% | ≥ 90% | ≥ 95% | –
Cc1cc(/C(OCOC(=O)C(C)(C)C)=C(\C#N)c2ccc(C(C)(C)C)cc2)n(C)n1 [Compound 5] | ≥ 90% | ≥ 90% | ≥ 95% | –
CCn1nc(C)cc1/C(OC(C)OC(=O)CSC)=C(\C#N)c1ccc(C(C)(C)C)cc1 (stereo not drawn) [Compound 260] | ≥ 90% | ≥ 90% | ≥ 95% | –
Cc1nn(C)c(/C(OC(C)OC(=O)Cc2ccccc2)=C(\C#N)c2ccc(C(C)(C)C)cc2)c1C (stereo not drawn) [Compound 190] | ≥ 90% | ≥ 90% | – | pest or weed control at 2.5 µg/mL [3, 14]: ≥ 95%
C=CC(=O)OCO/C(=C(/C#N)c1ccc(C(C)(C)C)cc1)c1c(Cl)c(C)nn1C [Compound 92] | ≥ 90% | ≥ 90% | ≥ 95% | –
Cc1cc(/C(OC(C)OC(=O)OCC(F)(F)F)=C(\C#N)c2ccc(C(C)(C)C)cc2)n(C)n1 (stereo not drawn) [Compound 499] | ≥ 90% | ≥ 90% | ≥ 95% | –
Cc1nn(C)c(/C(OC(C)OC(=O)Cc2ccccc2)=C(\C#N)c2ccc(C(C)(C)C)cc2)c1Cl (stereo not drawn) [Compound 115] | ≥ 90% | ≥ 90% | – | pest or weed control at 2.5 µg/mL [3, 14]: ≥ 95%
C#CCOC(=O)OC(C)O/C(=C(/C#N)c1ccc(C(C)(C)C)cc1)c1cc(C)nn1C (stereo not drawn) [Compound 508] | ≥ 90% | ≥ 90% | ≥ 95% | –
CCn1nc(C)cc1/C(OC(C)OC(C)=O)=C(\C#N)c1ccc(C(C)(C)C)cc1 (stereo not drawn) [Compound 251] | ≥ 90% | ≥ 90% | ≥ 95% | pest or weed control at 2 µg/mL [1, 4]: ≥ 90%; pest or weed control at 2 µg/mL [1, 6]: 100%; pest or weed control at 1.25 µg/mL [2, 7]: 100%; pest or weed control at 1.25 µg/mL [2, 8]: ≥ 90%; pest or weed control at 2 µg/mL [3, 10]: ≥ 90%; pest or weed control at 0.5 µg/mL [3, 12]: 100%
Cc1nn(C)c(/C(OC(C)OC(=O)C(F)(F)F)=C(\C#N)c2ccc(C(C)(C)C)cc2)c1Cl (stereo not drawn) [Compound 113] | ≥ 90% | ≥ 90% | ≥ 95% | –
CSCCOC(=O)OC(C)O/C(=C(/C#N)c1ccc(C(C)(C)C)cc1)c1cc(C)nn1C (stereo not drawn) [Compound 503] | ≥ 90% | ≥ 90% | ≥ 95% | –
CCn1nc(C)cc1/C(OCOC(=O)SCC(=O)OC)=C(\C#N)c1ccc(C(C)(C)C)cc1 [Compound 577] | ≥ 90% | ≥ 90% | ≥ 95% | –
CCC(=O)OC(C)O/C(=C(/C#N)c1ccc(C(C)(C)C)cc1)c1c(C)c(C)nn1CC (stereo not drawn) [Compound 402] | ≥ 90% | ≥ 90% | ≥ 95% | pest or weed control at 2 µg/mL [1, 4]: ≥ 90%; pest or weed control at 1.25 µg/mL [2, 8]: ≥ 90%; pest or weed control at 2 µg/mL [3, 10]: ≥ 90%
CCn1nc(C)cc1/C(OCOC(=O)C1CCCCC1)=C(\C#N)c1ccc(C(C)(C)C)cc1 [Compound 236] | ≥ 90% | ≥ 90% | ≥ 95% | –
Cc1nn(C)c(/C(OCOC(=O)CF)=C(\C#N)c2ccc(C(C)(C)C)cc2)c1Cl [Compound 87] | – | – | – | pest or weed control at 5 µg/mL ([1]; read-out: ovicidal activity): ≥ 90%; pest or weed control at 2.5 µg/mL [2, 8]: ≥ 90%; pest or weed control at 2.5 µg/mL [3, 13]: ≥ 95%
Cc1nn(C)c(/C(OCOC(=O)Cc2ccccc2)=C(\C#N)c2ccc(C(C)(C)C)cc2)c1C [Compound 165] | ≥ 90% | ≥ 90% | – | pest or weed control at 2.5 µg/mL [3, 14]: ≥ 95%
CCn1nc(C)cc1/C(OCOC(=O)C(C)C)=C(\C#N)c1ccc(C(C)(C)C)cc1 [Compound 229] | ≥ 90% | ≥ 90% | ≥ 95% | –
Cc1nn(C)c(/C(OC(C)OC(=O)C2CCCCC2)=C(\C#N)c2ccc(C(C)(C)C)cc2)c1C (stereo not drawn) [Compound 186] | ≥ 90% | ≥ 90% | ≥ 95% | –
C=CC(=O)OC(C)O/C(=C(/C#N)c1ccc(C(C)(C)C)cc1)c1cc(C)nn1C (stereo not drawn) [Compound 42] | ≥ 90% | ≥ 90% | ≥ 95% | –
CCn1nc(C)c(Cl)c1/C(OC(C)OC(=O)C(C)(C)C)=C(\C#N)c1ccc(C(C)(C)C)cc1 (stereo not drawn) [Compound 330] | ≥ 90% | ≥ 90% | ≥ 95% | –
CCCCC(=O)OC(C)O/C(=C(/C#N)c1ccc(C(C)(C)C)cc1)c1c(Cl)c(C)nn1C (stereo not drawn) [Compound 106] | ≥ 90% | ≥ 90% | ≥ 95% | –
Cc1cc(/C(OC(C)OC(=O)c2ccccc2)=C(\C#N)c2ccc(C(C)(C)C)cc2)n(C)n1 (stereo not drawn) [Compound 39] | ≥ 90% | ≥ 90% | ≥ 95% | –
CC(C)(C)C(=O)OCOC(=C(C#N)c1ccc(C(C)(C)C)cc1)c1ccccc1C(F)(F)F [Compound 8-1, reference compound] | < 30% | < 80% | < 80% | pest or weed control at 2 µg/mL [1, 4]: 0%; pest or weed control at 2 µg/mL [1, 6]: 0%; pest or weed control at 1.25 µg/mL [2, 7]: 45%; pest or weed control at 1.25 µg/mL [2, 8]: < 50%; pest or weed control at 0.5 µg/mL ([3]; 48 h, concentration 0.5 mg/L, read-out: nymph-killing activity): < 30%; pest or weed control at 0.5 µg/mL [3, 12]: 25%

From patent US11104648B2, “Pyrazole derivative” (Zhejiang Research Institute of Chemical Industry Co., Ltd., priority 2018, dated 2021)
